In patent US20250059214A1, “AMIDE-CONTAINING LONP1 INHIBITOR COMPOUNDS, USES AND METHODS” (Pretzel Therapeutics, Inc., priority 2021, published 2025):

What follows are compounds tested against LONP1 (NM_004793.4) (Homo sapiens (Human), UniProt P36776) (assay: FRET-based assay for LONP1 protease activity using fluorogenic peptide substrate). Conditions: LONP1 15 nM as monomer, substrate 3 μM, 1 hour at 37° C., 15 min pre-incubation with compound; average of a minimum of two repeats.
Sequence of LONP1 (NM_004793.4) (P36776 68-959): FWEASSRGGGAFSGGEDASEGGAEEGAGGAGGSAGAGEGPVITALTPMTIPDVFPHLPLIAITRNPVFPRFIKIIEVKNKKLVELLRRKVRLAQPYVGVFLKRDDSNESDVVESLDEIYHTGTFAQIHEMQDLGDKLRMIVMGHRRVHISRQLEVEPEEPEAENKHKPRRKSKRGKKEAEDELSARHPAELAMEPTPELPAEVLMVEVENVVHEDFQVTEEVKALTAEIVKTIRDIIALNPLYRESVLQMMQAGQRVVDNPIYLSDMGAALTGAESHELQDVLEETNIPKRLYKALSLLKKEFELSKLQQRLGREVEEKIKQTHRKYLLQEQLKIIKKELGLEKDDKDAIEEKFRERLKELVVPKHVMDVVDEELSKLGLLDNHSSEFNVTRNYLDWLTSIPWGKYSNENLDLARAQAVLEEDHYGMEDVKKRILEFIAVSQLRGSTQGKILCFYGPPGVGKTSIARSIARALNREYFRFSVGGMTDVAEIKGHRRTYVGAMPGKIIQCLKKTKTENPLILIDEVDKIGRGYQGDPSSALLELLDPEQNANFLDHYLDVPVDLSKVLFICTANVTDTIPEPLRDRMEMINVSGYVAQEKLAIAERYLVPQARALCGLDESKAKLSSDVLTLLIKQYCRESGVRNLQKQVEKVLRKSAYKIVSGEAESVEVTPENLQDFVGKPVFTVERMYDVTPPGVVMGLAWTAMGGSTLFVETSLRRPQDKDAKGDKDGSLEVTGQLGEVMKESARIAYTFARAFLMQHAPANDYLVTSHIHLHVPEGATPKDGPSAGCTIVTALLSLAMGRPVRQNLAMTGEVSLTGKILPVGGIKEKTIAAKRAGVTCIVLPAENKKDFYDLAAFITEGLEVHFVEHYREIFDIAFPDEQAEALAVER
Type: biochemical
Experimental: Inhibition of LONP1 protease activity by an inhibitor compound of the disclosure elicits a decrease in the fluorescent signal.
The LONP1-containing mix (10 μL) was incubated with the test compound for 15 min at 37° C. before adding the peptide-containing mix (5 μL). Solutions were dispensed using a small cassette-Multidrop Combi (Thermo Scientific).
Each value is based on an average of a minimum of two repeats.
Work on CC(C)C[C@H](NC(=O)[C@@H](CC(=O)N1CCOCC1)NC(=O)c1cnccn1)B(O)O [Compound 3, ((R)-3-methyl-1-((R)-4-morpholino-4-oxo-2-(pyrazine-2-carboxamido)butanamido)butyl)boronic acid] yielded an IC50 of 0.05 to 0.5 µM.
O=C(N[C@H](CC(=O)N1CCOCC1)C(=O)N[C@@H](CCc1ccccc1)B(O)O)c1cnccn1 [Compound 4, ((R)-1-((R)-4-morpholino-4-oxo-2-(pyrazine-2-carboxamido)butanamido)-3-phenylpropyl)boronic acid] showed an IC50 of 0.05 to 0.5 µM.
Work on CCCC[C@H](NC(=O)[C@@H](CC(=O)N1CCOCC1)NC(=O)c1cnccn1)B(O)O [Compound 5, ((R)-1-((R)-4-morpholino-4-oxo-2-(pyrazine-2-carboxamido)butanamido)pentyl)boronic acid] yielded an IC50 of 0.05 to 0.5 µM.
Cc1nc(C)c(C(=O)N[C@H](CC(=O)N2CCOCC2)C(=O)N[C@@H](CC(C)C)B(O)O)o1 [Compound 6, ((R)-1-((R)-2-(2,4-dimethyloxazole-5-carboxamido)-4-morpholino-4-oxobutanamido)-3-methylbutyl)boronic acid] gave an IC50 of 0.05 to 0.5 µM.
CC(=O)N[C@H](CC(=O)N1CCOCC1)C(=O)N[C@@H](CCCc1ccccc1)B(O)O [Compound 11] was tested, and the IC50 was 0.05 to 0.5 µM.
For CCC[C@H](NC(=O)[C@@H](CC(=O)N1CCOCC1)NC(=O)c1cnccn1)B(O)O [Compound 18, ((R)-1-((R)-4-morpholino-4-oxo-2-(pyrazine-2-carboxamido)butanamido)butyl)boronic acid], the IC50 was 0.05 to 0.5 µM.
In the case of CC[C@H](NC(=O)[C@@H](CC(=O)N1CCOCC1)NC(=O)c1cnccn1)B(O)O [Compound 19, ((R)-1-((R)-4-morpholino-4-oxo-2-(pyrazine-2-carboxamido)butanamido)propyl)boronic acid], the IC50 is reported as 0.05 to 0.5 µM.
In the case of CN(C)C(=O)N[C@H](CC(=O)N1CCOCC1)C(=O)N[C@@H](CCCc1ccccc1)B(O)O [Compound 20], the IC50 is reported as 0.05 to 0.5 µM.
O=C(N[C@H](CC(=O)N1CCOCC1)C(=O)N[C@@H](CCCc1ccccc1)B(O)O)C1CCCCC1 [Compound 22, ((R)-1-((R)-2-(cyclohexanecarboxamido)-4-morpholino-4-oxobutanamido)-4-phenylbutyl)boronic acid] gave an IC50 of less than 0.05 µM.
O=C(N[C@H](CC(=O)N1CCOCC1)C(=O)N[C@@H](CCCc1ccccc1)B(O)O)C1CCOCC1 [Compound 23, ((R)-1-((R)-4-morpholino-4-oxo-2-(tetrahydro-2H-pyran-4-carboxamido)butanamido)-4-phenylbutyl)boronic acid] gave an IC50 of less than 0.05 µM.
O=C(N[C@H](CC(=O)N1CCOCC1)C(=O)N[C@@H](Cc1ccccc1)B(O)O)c1cnccn1 [Compound 28, ((R)-1-((R)-4-morpholino-4-oxo-2-(pyrazine-2-carboxamido)butanamido)-2-phenylethyl) boronic acid] gave an IC50 of 0.5 to 5 µM.
Compound O=C(N[C@@H](CCCc1ccccc1)B(O)O)[C@@H](CC(=O)N1CCOCC1)NS(=O)(=O)c1cccc(Cl)c1 [Compound 29, ((R)-1-((R)-2-((3-chlorophenyl)sulfonamido)-4-morpholino-4-oxobutanamido)-4-phenylbutyl)boronic acid] has an IC50 of less than 0.05 µM.
Work on O=C(N[C@@H](CCCc1ccccc1)B(O)O)[C@@H](CC(=O)N1CCOCC1)NS(=O)(=O)c1ccccc1Cl [Compound 30, ((R)-1-((R)-2-((2-chlorophenyl)sulfonamido)-4-morpholino-4-oxobutanamido)-4-phenylbutyl)boronic acid] yielded an IC50 of 0.05 to 0.5 µM.
O=C(N[C@@H](CCCc1ccccc1)B(O)O)[C@@H](CC(=O)N1CCOCC1)NCc1ccccc1 [Compound 31] was tested, and the IC50 was 0.05 to 0.5 µM.
O=C(N[C@H](CC(=O)N1CCOCC1)C(=O)N[C@@H](CCCc1ccccc1)B(O)O)O[C@H]1CCOC1 [Compound 32, ((R)-1-((R)-4-morpholino-4-oxo-2-(((((S)tetrahydrofuran-3-yl)oxy)carbonyl)amino)butanamido)-4-phenylbutyl)boronic acid] gave an IC50 of less than 0.05 µM.
Work on O=C(N[C@@H](CCCc1ccccc1)B(O)O)[C@H](CC(=O)N1CCOCC1)NS(=O)(=O)c1ccccc1 [Compound 33, ((R)-1-((S)-4-morpholino-4-oxo-2-(phenylsulfonamido)butanamido)-4-phenylbutyl)boronic acid] yielded an IC50 of less than 0.05 µM.
CC(C)(C)OC(=O)N(Cc1ccccc1)[C@H](CC(=O)N1CCOCC1)C(=O)N[C@@H](CCCc1ccccc1)B(O)O [Compound 34, ((R)-1-((R)-2-(benzyl(tert-butoxycarbonyl)amino)-4-morpholino-4-oxobutanamido)-4-phenylbutyl)boronic acid] gave an IC50 of 0.5 to 5 µM.
O=C(N[C@H](CC(=O)N1CCOCC1)C(=O)N[C@@H](CCCc1ccccc1)B(O)O)c1cc(Cl)ccc1Cl [Compound 35, ((R)-1-((R)-2-(2,5-dichlorobenzamido)-4-morpholino-4-oxobutanamido)-4-phenylbutyl)boronic acid] gave an IC50 of less than 0.05 µM.
For O=C(N[C@H](CC(=O)N1CCOCC1)C(=O)N[C@@H](CCCc1ccccc1)B(O)O)O[C@@H]1CCOC1 [Compound 36, ((R)-1-((R)-4-morpholino-4-oxo-2-(((((R)-tetrahydrofuran-3-yl)oxy)carbonyl)amino)butanamido)-4-phenylbutyl)boronic acid], the IC50 was less than 0.05 µM.
Compound O=C(N[C@@H](CCCc1ccccc1)B(O)O)[C@@H](CC(=O)N1CCOCC1)NS(=O)(=O)c1cc(Cl)ccc1Cl [Compound 37, ((R)-1-((R)-2-((2,5-dichlorophenyl)sulfonamido)-4-morpholino-4-oxobutanamido)-4-phenylbutyl)boronic acid] has an IC50 of less than 0.05 µM.
Work on CC(C)NC(=O)N[C@H](CC(=O)N1CCOCC1)C(=O)N[C@@H](CCCc1ccccc1)B(O)O [Compound 38, ((R)-1-((R)-2-(3-isopropylureido)-4-morpholino-4-oxobutanamido)-4-phenylbutyl)boronic acid] yielded an IC50 of 0.05 to 0.5 µM.
O=C(N[C@@H](CCCc1ccccc1)B(O)O)[C@@H](CC(=O)N1CCOCC1)NS(=O)(=O)c1cnccn1 [Compound 39, ((R)-1-((R)-4-morpholino-4-oxo-2-(pyrazine-2-sulfonamido)butanamido)-4-phenylbutyl)boronic acid] gave an IC50 of 0.05 to 0.5 µM.
O=C(N[C@@H](CCCc1ccccc1)B(O)O)[C@@H](CC(=O)N1CCOCC1)NCCc1ccccc1 [Compound 40, ((R)-1-((R)-4-morpholino-4-oxo-2-(phenethylamino)butanamido)-4-phenylbutyl)boronic acid] gave an IC50 of 0.05 to 0.5 µM.
CC(C)(C)OC(=O)N(CCc1ccccc1)[C@H](CC(=O)N1CCOCC1)C(=O)N[C@@H](CCCc1ccccc1)B(O)O [Compound 41, ((R)-1-((R)-2-((tert-butoxycarbonyl)(phenethyl)amino)-4-morpholino-4-oxobutanamido)-4-phenylbutyl)boronic acid] gave an IC50 of 0.5 to 5 µM.
Work on O=C(N[C@@H](CCCc1ccccc1)B(O)O)[C@@H](CC(=O)N1CCOCC1)NC(=O)N1CCCC1 [Compound 42, ((R)-1-((R)-4-morpholino-4-oxo-2-(pyrrolidine-1-carboxamido)butanamido)-4-phenylbutyl)boronic acid] yielded an IC50 of 0.05 to 0.5 µM.
CNC(=O)N[C@H](CC(=O)N1CCOCC1)C(=O)N[C@@H](CCCc1ccccc1)B(O)O [Compound 43, ((R)-1-((R)-2-(3-methylureido)-4-morpholino-4-oxobutanamido)-4-phenylbutyl)boronic acid] showed an IC50 of 0.05 to 0.5 µM.
O=C(N[C@@H](CCCc1ccccc1)B(O)O)[C@@H](CC(=O)N1CCOCC1)NC(=O)N1CC[C@@H](O)C1 [Compound 44, ((R)-1-((R)-2-((R)-3-hydroxypyrrolidine-1-carboxamido)-4-morpholino-4-oxobutanamido)-4-phenylbutyl)boronic acid] showed an IC50 of 0.05 to 0.5 µM.
O=C(N[C@@H](CCCc1ccccc1)B(O)O)[C@@H](CC(=O)N1CCOCC1)NC(=O)N1CC[C@H](O)C1 [Compound 45, ((R)-1-((R)-2-((S)-3-hydroxypyrrolidine-1-carboxamido)-4-morpholino-4-oxobutanamido)-4-phenylbutyl)boronic acid] was tested, and the IC50 was 0.05 to 0.5 µM.
In the case of O=C(N[C@@H](CCCc1ccccc1)B(O)O)[C@@H](CC(=O)N1CCOCC1)Nc1ccccc1 [Compound 46], the IC50 is reported as 0.05 to 0.5 µM.
O=C(N[C@H](CC(=O)N1CCOCC1)C(=O)N[C@H]1CCOB1O)c1cnccn1 [Compound 47, N—((R)-1-(((R)-2-hydroxy-1,2-oxaborolan-3-yl)amino)-4-morpholino-1,4-dioxobutan-2-yl)pyrazine-2-carboxamide] was tested, and the IC50 was greater than 5 µM.
Compound O=C(N[C@@H](CCCc1ccccc1)B(O)O)[C@@H](CC(=O)N1CCOCC1)NC(=O)[C@H]1CCCCO1 [Compound 48, ((R)-1-((R)-4-morpholino-4-oxo-2-((R)-tetrahydro-2H-pyran-2-carboxamido)butanamido)-4-phenylbutyl)boronic acid] has an IC50 of 0.05 to 0.5 µM.
In the case of O=C(N[C@H](CC(=O)N1CCOCC1)C(=O)N[C@@H](CCCc1ccccc1)B(O)O)[C@@H]1CCCCO1 [Compound 49, ((R)-1-((R)-4-morpholino-4-oxo-2-((S)-tetrahydro-2H-pyran-2-carboxamido)butanamido)-4-phenylbutyl)boronic acid], the IC50 is reported as 0.05 to 0.5 µM.
